Source: EP4603105A1, “PHARMACEUTICAL COMPOSITION CONTAINING CYCLIC COMPOUND HAVING SELECTIVE KRAS INHIBITORY EFFECT AGAINST HRAS AND NRAS” (CHUGAI SEIYAKU KABUSHIKI KAISHA, priority 2022, dated 2024)
Read-outs that look alike come from different tables or passages of the source.

Tests used:
[1] = target: HRAS wild-type protein (Homo sapiens, UniProt P01112); test: Binding to HRAS by surface plasmon resonance (SPR), KD and KD ratio to KRAS
Method in brief: (§1)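 Affinity is measured by surface plasmon resonance at 30°C against captured, GDP-loaded RAS carrying a biotinylated Avi tag. Compounds are titrated by single-cycle kinetics, and KD comes from a 1:1 fit.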

[2] = target: GDP-bound NRAS wild-type protein (Homo sapiens, UniProt P01111); test: Binding to NRAS by surface plasmon resonance (SPR), KD and KD ratio to KRAS
Chain of GDP-bound NRAS wild-type protein (P01111 whole entry): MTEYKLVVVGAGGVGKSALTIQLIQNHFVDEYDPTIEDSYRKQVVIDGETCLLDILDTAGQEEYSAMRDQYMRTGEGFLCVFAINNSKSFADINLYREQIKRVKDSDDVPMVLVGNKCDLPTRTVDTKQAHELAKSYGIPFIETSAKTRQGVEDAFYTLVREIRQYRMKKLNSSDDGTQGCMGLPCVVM
Method in brief: as §1

[3] = target: GDP-bound KRAS wild-type protein (Homo sapiens, UniProt P01116); test: Binding to KRAS by surface plasmon resonance (SPR), dissociation constant KD
Chain of GDP-bound KRAS wild-type protein (P01116 1-188 isoform P01116-2): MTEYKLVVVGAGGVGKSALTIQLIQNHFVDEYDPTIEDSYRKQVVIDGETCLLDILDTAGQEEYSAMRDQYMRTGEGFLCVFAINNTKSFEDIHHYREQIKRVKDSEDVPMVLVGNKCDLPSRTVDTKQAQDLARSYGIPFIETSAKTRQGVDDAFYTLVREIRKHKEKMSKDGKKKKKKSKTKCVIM
Method in brief: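 Single-cycle kinetics on GDP-loaded biotin-Avi RAS captured to ~100–300 RU; 75 s ascending injections, 100 µL/min, 30°C. HBS pH 7.4 + 10 mM MgCl2/10 µM GDP/4% DMSO. 1:1 fit, KD.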

[4] = test system: human lung cancer strain NCI-H441; type: cell-based
Method in brief: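 Readout: […] after the ATP-based reagent. Compound: serial dilutions in dimethyl sulfoxide.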

[5] = ratio of the KD value with respect to HRAS wild-type protein to the KD value with respect to KRAS
[6] = ratio of the KD value with respect to GDP-bound NRAS wild-type protein to the KD value with respect to KRAS
[7] = Single Cycle Kinetics, 1:1 binding model
[8] = ratio of KD for HRAS wild-type protein to KD for KRAS
[9] = ratio of KD for GDP-bound NRAS wild-type protein to KD for KRAS
[10] = ratio of KD value for HRAS wild-type protein to KD value for KRAS (SPR)
[11] = ratio of KD value for GDP-bound NRAS wild-type protein to KD value for KRAS (SPR)

Chain of HRAS wild-type protein (P01112 whole entry): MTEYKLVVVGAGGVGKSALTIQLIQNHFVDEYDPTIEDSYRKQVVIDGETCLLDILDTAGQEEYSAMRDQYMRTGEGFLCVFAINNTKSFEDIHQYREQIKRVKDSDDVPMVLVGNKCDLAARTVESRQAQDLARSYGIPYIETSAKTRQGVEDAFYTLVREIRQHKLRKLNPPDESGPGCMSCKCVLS

SMILES	HRAS /KRAS [1, 5]	NRAS /KRAS [2, 6]	Kd [3, 7]	IC50 [4]	HRAS /KRAS [1, 8]	NRAS /KRAS [2, 9]	Kd ([3]; 1:1 binding model)	HRAS /KRAS [1, 10]	NRAS /KRAS [2, 11]	Kd ([3]; Single Cycle Kinetics)	IC50 ([4]; NCI-H441 cells, 4 days, CellTiter-Glo, read-out: NCl-H441 IC50)
CC[C@H](C)[C@@H]1NC(=O)[C@H](CC(C)C)N(C)C(=O)C[C@@H](C(=O)N2C3CCC2COC3)N(C)C(=O)[C@H](C2CCCC2)N(C)C(=O)C2(CCCC2)NC(=O)[C@@H]2CCCN2C(=O)[C@H](CCc2cc(F)c(C(F)(F)F)c(F)c2)NC(=O)CN(C)C(=O)[C@H](Cc2ccc(C(F)(F)F)cc2)N2CCCC[C@@H](C2=O)N(C)C(=O)CN(C)C1=O [PP0573]	B (a compound having 3 or more and less than 10 is denoted as B)	B (a compound having 3 or more and less than 10 is denoted as B)	0.34 nM	8.7 nM	–	–	–	–	–	–	–
CCO[C@@H]1C[C@H]2C(=O)NC3(CCC3)C(=O)N(C)[C@@H](C3CCCC3)C(=O)N(C)[C@H](C(=O)N(C)C)CC(=O)N(C)[C@@H](CC3CCCC3)C(=O)N[C@@H]([C@@H](C)CC)C(=O)N(C)CC(=O)N(C)[C@H]3C/C=C\CCN(C3=O)[C@@H](Cc3ccc(C)cc3)C(=O)N(C)CC(=O)N[C@@H](CCc3ccc(C(F)(F)F)c(C4CC4)c3)C(=O)N2C1 [PP2681]	–	–	–	29.1 nM	A (a compound having 10 or more and less than 20 is denoted as A)	A (a compound having 10 or more and less than 20 is denoted as A)	0.37 nM	–	–	–	–
CCO[C@@H]1C[C@H]2C(=O)NC3(CC(C)(C)C3)C(=O)N(C)[C@@H](C3CCCC3)C(=O)N(C)[C@H](C(=O)N(C)C)CC(=O)N(C)[C@@H]([C@H](C)OC)C(=O)N[C@@H]([C@@H](C)CC)C(=O)N3CCC[C@H]3C(=O)N(C)[C@H]3C/C=C\CCN(C3=O)[C@@H](Cc3ccc(C)cc3)C(=O)N(C)CC(=O)N[C@@H](CCc3ccc(C(F)(F)F)c(OC)c3)C(=O)N2C1 [PP3197]	–	–	–	130 nM	A (a compound having 10 or more and less than 20 is denoted as A)	A (a compound having 10 or more and less than 20 is denoted as A)	1.4 nM	–	–	–	–
CCO[C@@H]1C[C@H]2C(=O)NC3(CCC3)C(=O)N(C)[C@@H](C3CCCC3)C(=O)N(C)[C@H](C)CC(=O)N(C)[C@@H](CC3CCCC3)C(=O)N[C@@H]([C@@H](C)CC)C(=O)N(C)CC(=O)N(C)[C@H]3C/C=C\CCN(C3=O)[C@@H](Cc3ccc(F)cc3)C(=O)N(C)CC(=O)N[C@@H](CCc3cc(F)c(C(F)(F)F)c(F)c3)C(=O)N2C1 [PP1492]	–	–	0.94 nM	129 nM	–	–	–	B (a compound having 3 or more and less than 10 is denoted as B)	B (a compound having 3 or more and less than 10 is denoted as B)	–	–
CC[C@H](C)[C@@H]1NC(=O)[C@H](CC(C)C)N(C)C(=O)C[C@@H](C(=O)N(C)C)N(C)C(=O)[C@H](C2CCCC2)N(C)C(=O)C2(CCC2)NC(=O)[C@@H]2C[C@H](C)CN2C(=O)[C@H](CCc2ccc(C(F)(F)F)c(Cl)c2)NC(=O)CN(C)C(=O)[C@H](Cc2ccc(C)cc2)N2CC/C=C\C[C@@H](C2=O)N(C)C(=O)CN(C)C1=O [PP1852]	–	–	0.071 nM	6 nM	–	–	–	B (a compound having 3 or more and less than 10 is denoted as B)	A (a compound having 10 or more and less than 20 is denoted as A)	–	–
CCO[C@@H]1C[C@H]2C(=O)N(C)C3(CC(C)(C)C3)C(=O)N(C)[C@@H](C(CC)CC)C(=O)N(C)[C@H](C(=O)N(C)C)CC(=O)N(C)[C@@H](COC)C(=O)N[C@@H]([C@@H](C)CC)C(=O)N(C)CC(=O)N(C)[C@H]3C/C=C\CCN(C3=O)[C@@H](Cc3ccc(C)cc3)C(=O)N(C)CC(=O)N[C@@H](CCc3ccc(Cl)c(Cl)c3)C(=O)N2C1 [PP2810]	–	–	–	38.1 nM	A (a compound having 10 or more and less than 20 is denoted as A)	AA (a compound having 20 or more is denoted as AA)	0.46 nM	–	–	–	–
CC[C@H](C)[C@@H]1NC(=O)[C@H](CC(C)C)N(C)C(=O)C[C@@H](C(=O)N2CCOCC2)N(C)C(=O)[C@H](C2CCCC2)N(C)C(=O)C2(CCC2)NC(=O)[C@@H]2C[C@@H](OCC3CC3)CN2C(=O)[C@H](CCc2cc(F)c(C(F)(F)F)c(F)c2)NC(=O)CN(C)C(=O)[C@H](Cc2ccc(C(F)(F)F)cc2)N2CCCC[C@@H](C2=O)N(C)C(=O)CN(C)C1=O [PP1000]	–	–	–	7.5 nM	B (a compound having 3 or more and less than 10 is denoted as B)	B (a compound having 3 or more and less than 10 is denoted as B)	–	–	–	0.039 nM	–
CCC(CC)[C@H]1C(=O)N(C)[C@H](C(=O)N2CCCCC2)CC(=O)N(C)[C@H]2CCC/C=C/c3ccc(cc3)C[C@@H](C(=O)N(C)CC(=O)N[C@@H](CCc3ccc(Cl)c(Cl)c3)C(=O)N3CCC[C@H]3C(=O)NC3(CC(C)(C)C3)C(=O)N1C)N1CC/C=C\C[C@@H](C1=O)N(C)C(=O)CN(C)C(=O)[C@H]([C@@H](C)CC)NC2=O [PP3055]	–	–	–	–	A (a compound having 10 or more and less than 20 is denoted as A)	AA (a compound having 20 or more is denoted as AA)	1 nM	–	–	–	69.2 nM
CCO[C@@H]1C[C@H]2C(=O)NC3(CCC3)C(=O)N(C)[C@@H](C3CCCC3)C(=O)N(C)[C@H](C(=O)N3CCOCC3)CC(=O)N(C)[C@@H](CC(C)C)C(=O)N[C@@H]([C@H](C)CC)C(=O)N(C)CC(=O)N(C)[C@H]3CCCCCN(C3=O)[C@@H](Cc3ccc(C(F)(F)F)cc3)C(=O)N(C)CC(=O)N[C@@H](CCc3cc(F)c(C(F)(F)F)c(F)c3)C(=O)N2C1 [PP0815]	–	–	–	345 nM	B (a compound having 3 or more and less than 10 is denoted as B)	B (a compound having 3 or more and less than 10 is denoted as B)	–	–	–	3.9 nM	–
CCO[C@@H]1C[C@H]2C(=O)NC3(CC(C)(C)C3)C(=O)N(C)[C@@H](C3CCCC3)C(=O)N(C)[C@H](C(=O)N(C)CC)CC(=O)N(C)[C@@H](CC(C)C)C(=O)N[C@@H]([C@@H](C)CC)C(=O)N(C)CC(=O)N(C)[C@H]3C/C=C\CCN(C3=O)[C@@H](Cc3ccc(C(F)F)cc3)C(=O)N(C)CC(=O)N[C@@H](CCc3cc(C)c(C4CC4)c(C)c3)C(=O)N2C1 [PP3148]	–	–	–	75.9 nM	A (a compound having 10 or more and less than 20 is denoted as A)	A (a compound having 10 or more and less than 20 is denoted as A)	2.4 nM	–	–	–	–
CCO[C@@H]1C[C@H]2C(=O)NC3(CCC3)C(=O)N(C)[C@@H](C3CCCC3)C(=O)N(C)[C@H](C(=O)N3CCOCC3)CC(=O)N(C)[C@@H](CC3CCC3)C(=O)N[C@@H]([C@@H](C)CC)C(=O)N(C)CC(=O)N(C)[C@H]3CCCCCN(C3=O)[C@@H](Cc3ccc(C(F)(F)F)cc3)C(=O)N(C)CC(=O)N[C@@H](CCc3cc(F)c(C(F)(F)F)c(F)c3)C(=O)N2C1 [PP0683]	B (a compound having 3 or more and less than 10 is denoted as B)	B (a compound having 3 or more and less than 10 is denoted as B)	0.61 nM	44.7 nM	–	–	–	–	–	–	–
CCCOC[C@H]1C(=O)N[C@@H]([C@@H](C)CC)C(=O)N(C)CC(=O)N(C)[C@H]2C/C=C\CCN(C2=O)[C@@H](Cc2ccc(C(F)(F)F)cc2)C(=O)N(C)CC(=O)N[C@@H](CCc2ccc(Cl)c(Cl)c2)C(=O)N2C[C@H](OCC)C[C@H]2C(=O)NC2(CCC2)C(=O)N(C)[C@@H](C2CCCC2)C(=O)N(C)[C@H](C(=O)N(C)CCC)CC(=O)N1C [PP2830]	–	–	–	28.8 nM	A (a compound having 10 or more and less than 20 is denoted as A)	A (a compound having 10 or more and less than 20 is denoted as A)	0.37 nM	–	–	–	–
CCCOC[C@H]1C(=O)N[C@@H]([C@@H](C)CC)C(=O)N(C)CC(=O)N(C)[C@H]2C/C=C\CCN(C2=O)[C@@H](Cc2ccc(C)cc2)C(=O)N(C)CC(=O)N[C@@H](CCc2cc(F)c(C(F)(F)F)c(F)c2)C(=O)N2C[C@H](CCC)C[C@H]2C(=O)NC2(CC(C)(C)C2)C(=O)N(C)[C@@H](C2CCCC2)C(=O)N(C)[C@H](C(=O)N(C)C)CC(=O)N1C [PP2203]	A (a compound having 10 or more and less than 20 is denoted as A)	A (a compound having 10 or more and less than 20 is denoted as A)	0.34 nM	20.5 nM	–	–	–	–	–	–	–
CC[C@H](C)[C@@H]1NC(=O)[C@H](CC(C)C)N(C)C(=O)C[C@@H](C(=O)N2CCOCC2)N(C)C(=O)[C@H](C2CCCC2)N(C)C(=O)C2(CCC2)NC(=O)[C@@H]2CC(F)(F)CN2C(=O)[C@H](CCc2ccc(C(F)(F)F)c(Cl)c2)NC(=O)CN(C)C(=O)[C@H](Cc2ccc(F)cc2)N2CCCCC[C@@H](C2=O)N(C)C(=O)CN(C)C1=O [PP0969]	–	–	–	13.6 nM	B (a compound having 3 or more and less than 10 is denoted as B)	B (a compound having 3 or more and less than 10 is denoted as B)	–	–	–	0.12 nM	–
CCC[C@H]1C(=O)N[C@@H]([C@H](C)CC)C(=O)N(C)CC(=O)N(C)[C@H]2C/C=C\CCN(C2=O)[C@@H](Cc2ccc(C)cc2)C(=O)N(C)CC(=O)N[C@@H](CCc2ccc(C(F)(F)F)c(Cl)c2)C(=O)N2C[C@H](OCC)C[C@H]2C(=O)NC2(CC(C)(C)C2)C(=O)N(C)[C@@H](C2CCCC2)C(=O)N(C)[C@H](C(=O)N(C)C)CC(=O)N1C [PP2221]	A (a compound having 10 or more and less than 20 is denoted as A)	A (a compound having 10 or more and less than 20 is denoted as A)	1.7 nM	40.5 nM	–	–	–	–	–	–	–
